Values after ≈ are worked out from the molar mass of the structure shown. “Also recorded” adds a separate entry of the source. Read-outs that look alike come from different tables or passages of the source.
What was measured:
[1] = test system: Culex quinquefasciatus larvae; assay: whole plant or invertebrate
Excerpt: (§1) Measuring potency of 3,3-diindolylmethane and 3-((1H-indol-2-yl)methyl)-1H-indole. 3,3′-Diindolylmethane (also called arundine, CAS number: 1968-05-4) was purchased from MILLIPORESIGMA (cat #74601) and Cayman Chemical (catalog #15927). 3-((1H-indol-2-yl)methyl)-1H-indole (CAS number: 114648-66-7) was purchased from Ambeed (catalog #A735658). Compounds were resuspended in dimethyl sulfoxide (DMSO). For collecting data to construct dose curves for 3,3-diindolylmethane and 3-((1H-indol-2-yl)methyl)-1H-indole, a series of twenty 1:2 dilutions was made to test in bioassays, establish a dose curve, and determine the LC50 value.
Culex quinquefasciatus bioassays with compounds. First or second instar Culex quinquefasciatus larvae were purchased from Benzon Research, Inc. (Carlisle, PA). Assays were performed with third instar larvae. Larvae were washed with sterile water before transfer to 24-well assay plates containing 1 mL of sterile water in each well. Each well contained 5 larvae. Compound dilutions were made in DMSO, topped with sterile NYSM broth and applied to each assay well. The final DMSO concentration was 1% in each assay well. Larvae mortality was scored for each well at 24-hour timepoints after application.

Aedes aegypti larvae = assay: whole plant or invertebrate; details: for LC50: Aedes aegypti
Excerpt: as §1
Aedes aegypti bioassays with compounds. Assays were performed using second or third instar larvae, with biological replication. Larvae were washed with sterile water before transfer to 24-well assay plates containing 1 mL of sterile water in each well. Each well contained 5 larvae. Compound dilutions were made in DMSO, topped with sterile NYSM broth and applied to each assay well. The final DMSO concentration was 1% in each assay well. Larval mortality was scored for each well at 24-hour timepoints after application.
Heat treatments. Samples were heated in 1.5-mL microfuge tubes in a standard laboratory heat block at the indicated temperature and time.
The EtOAc fraction was redissolved in MeOH and subjected to chromatographic fractionation (FIG. 11C) using preparative reversed-phase HPLC (Phenomenex Luna phenylhexyl, 21.2 mm×15 cm, 5 μm, 20 mL/min, isocratic elution with 80% H2O/MeCN for 2 min followed by gradient elution from 80% H2O/MeCN to 100% MeCN over 30 min then isocratic elution with 100% MeCN for 5 min) to yield 30 fractions. The preparative HPLC fractions (at concentrations of 200 μg/mL and 20 μg/mL) were tested against Aedes aegypti.

[2] = test system: Diatraea grandiosella (southwestern corn borer); assay: Lepidopteran diet overlay bioassay; details: in Zea mays, 168 h, read-out: Mortalities (%) after 7 days of treatment (Abbott’s Correction), SWCB
Protocol: (§2) Lepidopteran bioassays. Lepidopteran bioassays were performed at Benzon Research, Inc. (Carlisle, PA). 3,3′-Diindolylmethane samples were solubilized in dimethyl sulfoxide (DMSO). Samples were then frozen and shipped to Benzon. Samples were resuspended with 9× volumes of water before application to the assay well. The final DMSO concentration in the assay well was 2%. PLU6 extract samples were prepared as a series of three 1:5 dilutions in dimethyl sulfoxide. Samples were then further diluted with fresh NYSM broth, then shipped to Benzon Research for use in a diet overlay assay. Assays were performed using neonate larvae of 14 different Lepidopteran species (Anticarsia gemmatalis (velvetbean caterpillar), Diatraea grandiosella (southwestern corn borer), Diatraea saccharalis (sugarcane borer), Ostrinia nubilalis (European corn borer), Trichoplusia ni (cabbage looper), Chrysodeixis includens (soybean looper), Spodoptera exigua (beet armyworm), Spodoptera frugiperda (fall armyworm), Spodoptera eridania (southern armyworm), Chloridia virescens (tobacco budworm), Helicoverpa zea (corn earworm), Agrotis ipsilon (black cutworm), Cydia pomonella (codling moth), Plutella xylostella (diamondback moth) with an N=16 or N=32, apart from P. xylostella, for which third instar larvae were used. A diet-surface overlay format was used, in which 500 microliters of diet was placed in each well. One hundred microliters of sample was then pipetted into each well and allowed to dry. A DMSO control was included with each set of samples. An internal Btk (Bacillus thurengiensis kurstaki) standard at a concentration of 1000 ppm was used as a positive control, and water was used as a negative control.

[3] = test system: Chrysodeixis includens (soybean looper); assay: Lepidopteran diet overlay bioassay; details: in Glycine max, 168 h, read-out: Mortalities (%) after 7 days of treatment (Abbott’s Correction), SBL
Protocol: as §2

[4] = test system: Agrotis ipsilon (black cutworm); assay: Lepidopteran diet overlay bioassay
Protocol: as §2

[5] = test system: Spodoptera eridania (southern armyworm); assay: Lepidopteran diet overlay bioassay; details: 168 h, read-out: Mortalities (%) after 7 days of treatment (Abbott’s Correction), SAW
Protocol: as §2

[6] = test system: Diatraea saccharalis (sugarcane borer); assay: Lepidopteran diet overlay bioassay; details: 168 h, read-out: Mortalities (%) after 7 days of treatment (Abbott’s Correction), SCB
Protocol: as §2

[7] = test system: Cydia pomonella (codling moth); assay: Lepidopteran diet overlay bioassay; details: 168 h, read-out: Mortalities (%) after 7 days of treatment (Abbott’s Correction), CM
Protocol: as §2

[8] = test system: Helicoverpa zea (corn earworm); assay: Lepidopteran diet overlay bioassay; details: 168 h, read-out: Mortalities (%) after 7 days of treatment (Abbott’s Correction), CEW
Protocol: as §2

[9] = test system: Spodoptera frugiperda (fall armyworm); assay: whole plant or invertebrate
Protocol: as §2
(§3) Experiments were conducted in which mortality of lepidopteran larvae was measured after 7 days of diet overlay treatment with 3,3′-diindolylmethane at the concentrations indicated in Table 3. Mean mortalities and standard deviations were calculated from three independent experiments (each N=16). For each experiment, mortalities were corrected using Abbott's formula (Abbott (1987) “Method of computing the effectiveness of an insecticide” J. American Mosquito Control Association 2: 302-03, incorporated herein by reference). For all species except Plutella xylostella, neonates were used. For P. xylostella, third instar larvae were used. The positive control used was 1000 ppm of Bacillus thuringiensis kurstaki.

[10] = test system: Heliothis virescens (tobacco budworm); assay: whole plant or invertebrate
Protocol: as §2, §3

[11] = test system: Drosophila suzukii (spotted wing Drosophila); assay: Drosophila suzukii diet incorporation assay; assay type: in vivo; details: 100, 500, 1000 μg/mL
Protocol: During the development of embodiments of the technology described herein, experiments were conducted to assess the activity of 3,3′-diindolylmethane against Drosophila suzukii. […] A1X=100 μg/mL; A5X=500 μg/mL; A10X=1000 μg/mL. Each concentration was tested with 10 vials containing 20 D. suzukii L2 larvae. “Dpi” indicates days post infestation (0 dpi is the day of egg-laying).

[12] = test system: Plutella xylostella (diamondback moth); assay: Lepidopteran diet overlay bioassay
Protocol: as §2, §3

[13] = test system: Ostrinia nubilalis (European corn borer); assay: Lepidopteran diet overlay bioassay
Protocol: as §2, §3

[14] = test system: Spodoptera exigua (beet armyworm); assay: whole plant or invertebrate
Protocol: as §2

[15] = test system: Anticarsia gemmatalis (velvetbean caterpillar); assay: whole plant or invertebrate
Protocol: as §2

[16] = test system: Trichoplusia ni (cabbage looper); details: for Mortality, Trichoplusia ni (cabbage looper): 7 days diet overlay, neonates, mean of three experiments (each N=16), Abbott's formula; for Mortalities (%) after 7 days of treatment (Abbott’s Correction), CL: Trichoplusia ni (cabbage looper)
Protocol: as §2, §3

[17] = read-out: LC50 (representative curve fit)
[18] = Agrotis ipsilon, 168 h, read-out: Mortalities (%) after 7 days of treatment (Abbott’s Correction), BCW
[19] = Spodoptera frugiperda, 168 h, read-out: Mortalities (%) after 7 days of treatment (Abbott’s Correction), FAW
[20] = Spodoptera frugiperda, 168 h, read-out: Mortality, Spodoptera frugiperda (fall armyworm)
[21] = Heliothis virescens, 168 h, read-out: Mortalities (%) after 7 days of treatment (Abbott’s Correction), TBW
[22] = Heliothis virescens, 168 h, read-out: Mortality, Heliothis virescens (tobacco budworm)
[23] = Plutella xylostella, 168 h, read-out: Mortalities (%) after 7 days of treatment (Abbott’s Correction), DBM
[24] = Plutella xylostella, 168 h, read-out: Mortality, Plutella xylostella (diamondback moth)
[25] = Ostrinia nubilalis, 168 h, read-out: Mortality, Ostrinia nubilalis (European corn borer)
[26] = Spodoptera exigua, 168 h, read-out: Mortalities (%) after 7 days of treatment (Abbott’s Correction), BAW
[27] = Anticarsia gemmatalis, 168 h, read-out: Mortalities (%) after 7 days of treatment (Abbott’s Correction), VBC

c1ccc2c(Cc3c[nH]c4ccccc34)c[nH]c2c1 [3,3′-diindolylmethane, 3,3′-Diindolylmethane]
LC50 [1, 17]: 7.5 µg/mL (≈ 30.4 µM)
LC50 (Aedes aegypti larvae; [17]): 10.2 µg/mL (≈ 41.4 µM)
LC50 (Aedes aegypti larvae; read-out: mean LC50): 7.5 ± 3 µg/mL (≈ 30.4 µM)
activity against Aedes aegypti larvae (Aedes aegypti larvae; in vivo): exhibited larvicidal activity
mortality at 156.25 µg/mL [2]: 46.7%
mortality at 625 µg/mL [2]: 90%
mortality at 2500 µg/mL [2]: 83.3%
mortality at 156.25 µg/mL [3]: 26.7%
mortality at 625 µg/mL [3]: 50%
mortality at 2500 µg/mL [3]: 80%
mortality at 156.25 µg/mL [4, 18]: 0%
mortality at 625 µg/mL [4, 18]: 26.7%
mortality at 2500 µg/mL [4, 18]: 20%
activity against A. ipsilon ([4]; diet overlay): low or not observed
mortality at 156.25 µg/mL [5]: 22.6%
mortality at 625 µg/mL [5]: 100%
mortality at 2500 µg/mL [5]: 100%
mortality at 156.25 µg/mL [6]: 100%
mortality at 625 µg/mL [6]: 100%
mortality at 2500 µg/mL [6]: 100%
mortality at 156.25 µg/mL [7]: 21.4%
mortality at 625 µg/mL [7]: 50%
mortality at 2500 µg/mL [7]: 39.3%
mortality at 156.25 µg/mL [8]: 40.6%
mortality at 625 µg/mL [8]: 50%
mortality at 2500 µg/mL [8]: 90.6%
mortality at 156.25 µg/mL [9, 19]: 40%
mortality at 625 µg/mL [9, 19]: 63.3%
mortality at 2500 µg/mL [9, 19]: 96.7%
mortality at 9.77 µg/mL [9, 20]: 4.1%
mortality at 39.06 µg/mL [9, 20]: 2.15%
mortality at 156.25 µg/mL [9, 20]: 79%
mortality at 625 µg/mL [9, 20]: 85.1%
mortality at 2500 µg/mL [9, 20]: 95.7%
activity against Spodoptera frugiperda ([9]; diet overlay): active; also recorded: dose-dependent activity
mortality at 156.25 µg/mL [10, 21]: 74.2%
mortality at 625 µg/mL [10, 21]: 74.2%
mortality at 2500 µg/mL [10, 21]: 87.1%
mortality at 9.77 µg/mL [10, 22]: 3.16%
mortality at 39.06 µg/mL [10, 22]: 40.9%
mortality at 156.25 µg/mL [10, 22]: 85.2%
mortality at 625 µg/mL [10, 22]: 93.8%
mortality at 2500 µg/mL [10, 22]: 83.3%
activity against tobacco budworm ([10]; diet overlay): active; also recorded: dose-dependent activity
egg-to-adult survival [11]: not affected
insecticidal activity against spotted wing Drosophila [11]: did not display insecticidal activity
eclosion rate ([11]; L2 larvae, one-way ANOVA): not affected
pupation rate ([11]; L2 larvae, one-way ANOVA): not affected
mortality at 156.25 µg/mL [12, 23]: 19.4%
mortality at 625 µg/mL [12, 23]: 6.5%
mortality at 2500 µg/mL [12, 23]: 19.4%
mortality at 9.77 µg/mL [12, 24]: 1.01%
mortality at 39.06 µg/mL [12, 24]: 1.07%
mortality at 156.25 µg/mL [12, 24]: 7.39%
mortality at 625 µg/mL [12, 24]: 15.7%
mortality at 2500 µg/mL [12, 24]: 43.4%
activity against P. xylostella ([12]; diet overlay): low or not observed
mortality at 9.77 µg/mL [13, 25]: 2.08%
mortality at 39.06 µg/mL [13, 25]: 2.08%
mortality at 156.25 µg/mL [13, 25]: 4.17%
mortality at 625 µg/mL [13, 25]: 6.25%
mortality at 2500 µg/mL [13, 25]: 4.17%
activity against O. nubilalis ([13]; diet overlay): low or not observed
mortality at 156.25 µg/mL [14, 26]: 71.9%
mortality at 625 µg/mL [14, 26]: 93.8%
mortality at 2500 µg/mL [14, 26]: 71.9%
activity against Spodoptera exigua ([14]; diet overlay): active; also recorded: dose-dependent activity
mortality at 156.25 µg/mL [15, 27]: 100%
mortality at 625 µg/mL [15, 27]: 70%
mortality at 2500 µg/mL [15, 27]: 96.7%
activity against Anticarsia gemmatalis ([15]; diet overlay): active; also recorded: dose-dependent activity
Mortality, Trichoplusia ni (cabbage looper) ([16]; 39.06 μg/mL): 3.00%
Mortality, Trichoplusia ni (cabbage looper) ([16]; 156.25 μg/mL): 22.95%
Mortalities (%) after 7 days of treatment (Abbott’s Correction), CL ([16]; 156.25 μg/mL, diet overlay): 41.4%
Mortality, Trichoplusia ni (cabbage looper) ([16]; 625 μg/mL): 44.60%
Mortalities (%) after 7 days of treatment (Abbott’s Correction), CL ([16]; 625 μg/mL, diet overlay): 72.4%
Mortality, Trichoplusia ni (cabbage looper) ([16]; 2500 μg/mL): 93.25%
Mortalities (%) after 7 days of treatment (Abbott’s Correction), CL ([16]; 2500 μg/mL, diet overlay): 93.1%
activity against Trichoplusia ni ([16]; diet overlay): active; also recorded: dose-dependent activity

c1ccc2[nH]c(Cc3c[nH]c4ccccc34)cc2c1 [3-((1H-indol-2-yl)methyl)-1H-indole]
LC50 [1, 17]: 1.5 µg/mL (≈ 6.09 µM)
LC50 ([1]; read-out: mean LC50): 0.95 ± 0.75 µg/mL (≈ 3.86 µM)
LC50 (Aedes aegypti larvae; [17]): 5.8 µg/mL (≈ 23.5 µM)
LC50 (Aedes aegypti larvae; read-out: mean LC50): 6.3 ± 2.1 µg/mL (≈ 25.6 µM)

Reference: US12376589B2, “Chryseobacterium insect inhibitory microbial compositions and methods of making and using” (priority 2021, dated 2025)
